Results as given in patent US9409892B2, “4-hydroxy-isoquinoline compounds as HIF hydroxylase inhibitors” (FIBROGEN, INC., priority 2012, dated 2016).

Tests used:
[1] = molecular target: PHD1 (EGLN2) (Homo sapiens (Human), UniProt Q96KS0); test: HIF-PH assay (14CO2 capture), PHD1 enzyme inhibition; type: biochemical; conditions: for IC50: individual measurement, read-out: IC50 (μM) PHD1
Text: (§1) Ketoglutaric acid α-[1-^14C]-sodium salt, alpha-ketoglutaric acid sodium salt, and HPLC purified peptide may be obtained from commercial sources, e.g., Perkin-Elmer (Wellesley Mass.), Sigma-Aldrich, and SynPep Corp. (Dublin Calif.), respectively. Peptides for use in the assay may be fragments of HIFα as described above or as disclosed in International Publication WO 2005/118836, incorporated by reference herein. HIF-pH, e.g., PHD1 (EGLN2) or PHD2 (EGLN1), can be expressed in, e.g., insect Hi5 cells, and partially purified, e.g., through a SP ion exchange chromatography column. Enzyme activity is determined by capturing ^14CO2 using an assay described by Kivirikko and Myllyla (1982, Methods Enzymol. 82:245-304). Assay reactions contain 50 mM HEPES (pH 7.4), 100 μM α-ketoglutaric acid sodium salt, 0.30 mCi/mL ketoglutaric acid α-[1-^14C]-sodium salt, 40 μM FeSO4, 1 mM ascorbate, 1541.8 units/mL Catalase, with or without 50 μM peptide substrate and various concentrations of compound of the invention. Reactions are initiated by addition of HIF-PH enzyme.
(§2) The peptide-dependent percent turnover is calculated by subtracting percent turnover in the absence of peptide from percent turnover in the presence of substrate peptide. Percent inhibition and IC50 are calculated using peptide-dependent percent turnover at given inhibitor concentrations. Calculation of IC50 values for each inhibitor is conducted using GraFit software (Erithacus Software Ltd., Surrey UK).
(§3) The PHD2/PHD1 is the ratio of the IC50 of the compound for each enzyme.

[2] = molecular target: PHD2 (EGLN1) (Homo sapiens (Human), UniProt Q9GZT9); test: HIF-PH assay (14CO2 capture), PHD2 enzyme inhibition; type: biochemical; conditions: Table 1; individual measurement; read-out: IC50 (μM) PHD2
Text: as §1, §2, §3

[3] = Table 1, ratio of the IC50 of the compound for each enzyme
[4] = Table 2 comparative data, IC50 PHD2/IC50 PHD1

PHD1 (EGLN2), sequence (Q96KS0 whole entry, the tested form may be a part): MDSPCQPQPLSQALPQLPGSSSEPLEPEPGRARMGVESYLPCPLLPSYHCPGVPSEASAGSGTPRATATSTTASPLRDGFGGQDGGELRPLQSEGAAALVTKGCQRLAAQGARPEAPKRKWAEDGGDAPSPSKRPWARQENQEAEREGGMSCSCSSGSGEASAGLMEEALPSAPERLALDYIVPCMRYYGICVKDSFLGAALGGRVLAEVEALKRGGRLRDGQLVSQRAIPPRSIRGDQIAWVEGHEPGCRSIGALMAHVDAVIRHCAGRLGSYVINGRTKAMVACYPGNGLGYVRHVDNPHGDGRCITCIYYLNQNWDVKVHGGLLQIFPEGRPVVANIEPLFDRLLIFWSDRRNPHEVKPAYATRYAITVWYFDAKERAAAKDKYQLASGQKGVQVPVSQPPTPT
PHD2 (EGLN1), sequence (Q9GZT9 whole entry): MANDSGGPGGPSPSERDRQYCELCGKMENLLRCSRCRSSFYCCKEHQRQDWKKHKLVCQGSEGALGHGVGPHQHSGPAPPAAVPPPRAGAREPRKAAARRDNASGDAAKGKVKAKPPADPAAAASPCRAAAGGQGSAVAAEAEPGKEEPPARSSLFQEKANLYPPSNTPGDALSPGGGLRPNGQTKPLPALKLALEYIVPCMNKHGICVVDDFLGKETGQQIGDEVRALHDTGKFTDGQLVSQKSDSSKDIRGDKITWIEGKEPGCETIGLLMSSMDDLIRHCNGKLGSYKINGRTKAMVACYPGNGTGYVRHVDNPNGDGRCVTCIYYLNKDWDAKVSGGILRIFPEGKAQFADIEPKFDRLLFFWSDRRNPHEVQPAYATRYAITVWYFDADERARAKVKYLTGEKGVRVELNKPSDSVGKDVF

| Compound | IC50 ([1]; Table 1) [µM] | PHD2/PHD1 [1, 3] | IC50 [2] [µM] | PHD2/PHD1 [1, 4] |
| --- | --- | --- | --- | --- |
| N#Cc1nc(C(=O)N[C@H]2CCCC[C@H]2C(=O)O)c(O)c2ccc(Oc3ccccc3)cc12 (relative stereo) [Compound 32, cis-2-(1-Cyano-4-hydroxy-7-phenoxyisoquinoline-3-carboxamido)cyclohexanecarboxylic acid] | 27.9 | 6 | 182 |  |
| N#Cc1nc(C(=O)N[C@H]2CCC[C@H]2C(=O)O)c(O)c2ccc(Oc3ccccc3)cc12 (relative stereo) [Compound 33, cis-2-[(1-Cyano-4-hydroxy-7-phenoxy-isoquinoline-3-carbonyl)-amino]-cyclopentanecarboxylic acid] | 16.9 | 6 | 94.8 |  |
| O=C(O)CCNC(=O)c1ncc2cc(Oc3ccccc3)ccc2c1O [Compound 1, 3-[(4-Hydroxy-7-phenoxy-isoquinoline-3-carbonyl)-amino]propionic acid] | 0.92 | 11 | 10.3 | 11 |
| CC(C)(CNC(=O)c1ncc2cc(Oc3ccccc3)ccc2c1O)C(=O)O [Compound 2, 3-[(4-Hydroxy-7-phenoxy-isoquinoline-3-carbonyl)-amino]-2,2-dimethyl-propionic acid] | 5.5 | 8 | 46.7 |  |
| O=C(NC[C@H](O)C(=O)O)c1ncc2cc(Oc3ccccc3)ccc2c1O [Compound 3, 2-(S)-Hydroxy-3-[(4-hydroxy-7-phenoxy-isoquinoline-3-carbonyl)-amino]propionic acid] | 1.08 | 14 | 15.6 | 14 |
| O=C(O)CCCNC(=O)c1ncc2cc(Oc3ccccc3)ccc2c1O [Compound 4, 4-[(4-Hydroxy-7-phenoxy-isoquinoline-3-carbonyl)-amino]-butyric acid] | 1.17 | 6 | 7 |  |
| O=C(O)CCCCNC(=O)c1ncc2cc(Oc3ccccc3)ccc2c1O [Compound 5, 5-[(4-Hydroxy-7-phenoxy-isoquinoline-3-carbonyl)-amino]-pentanoic acid] | 2.75 | 22 | 61.7 |  |
| CC(C)(CC(=O)O)NC(=O)c1ncc2cc(Oc3ccccc3)ccc2c1O [Compound 6, 3-[(4-Hydroxy-7-phenoxy-isoquinoline-3-carbonyl)-amino]-3-methyl-butyric acid] | 8.19 | 23 | 192 | 23 |
| O=C(NCC[C@H](O)C(=O)O)c1ncc2cc(Oc3ccccc3)ccc2c1O [Compound 7, 2-(S)-Hydroxy-4-[(4-hydroxy-7-phenoxy-isoquinoline-3-carbonyl)-amino]-butyric acid] | 3.02 | 17 | 52.7 |  |
| CC(C)(CCNC(=O)c1ncc2cc(Oc3ccccc3)ccc2c1O)C(=O)O [Compound 8, 4-[(4-Hydroxy-7-phenoxy-isoquinoline-3-carbonyl)-amino]-2,2-dimethyl-butyric acid] | 11.6 | 10 | 119 |  |
| N[C@@H](CNC(=O)c1ncc2cc(Oc3ccccc3)ccc2c1O)C(=O)O [Compound 9, 2-(S)-Amino-3-[(4-hydroxy-7-phenoxy-isoquinoline-3-carbonyl)-amino]-propionic acid] | 33.9 | 6 | > 200 |  |
| N#Cc1nc(C(=O)NCCC(=O)O)c(O)c2ccc(Oc3ccccc3)cc12 [Compound 10, 3-[(1-Cyano-4-hydroxy-7-phenoxy-isoquinoline-3-carbonyl)-amino]-propionic acid] | 0.24 | 5 | 1.33 | 5 |
| CC(CC(=O)O)NC(=O)c1nc(C#N)c2cc(Oc3ccccc3)ccc2c1O (centres unmarked) [Compound 11, 3-[(1-Cyano-4-hydroxy-7-phenoxy-isoquinoline-3-carbonyl)-amino]butyric acid] | 1.37 | 41 | 56.6 | 41 |
| N#Cc1nc(C(=O)NCC2(C(=O)O)CC2)c(O)c2ccc(Oc3ccccc3)cc12 [Compound 12, 1-{[(1-Cyano-4-hydroxy-7-phenoxy-isoquinoline-3-carbonyl)-amino]-methyl}-cyclopropanecarboxylic acid] | 0.17 | 9 | 1.62 |  |
| O=C(NCC1(C(=O)O)CCC1)c1ncc2cc(Oc3ccccc3)ccc2c1O [Compound 13, 1-{[(4-Hydroxy-7-phenoxy-isoquinoline-3-carbonyl)-amino]-methyl}-cyclobutanecarboxylic acid] | 5.51 | 7 | 40.8 |  |
| N#Cc1nc(C(=O)NCC2(C(=O)O)CCC2)c(O)c2ccc(Oc3ccccc3)cc12 [Compound 14, 1-{[(1-Cyano-4-hydroxy-7-phenoxy-isoquinoline-3-carbonyl)-amino]-methyl}-cyclobutanecarboxylic acid] | 0.31 | 11 | 3.52 |  |
| O=C(NCC1(C(=O)O)CCOCC1)c1ncc2cc(Oc3ccccc3)ccc2c1O [Compound 15, 4-{[(4-Hydroxy-7-phenoxy-isoquinoline-3-carbonyl)-amino]-methyl}-tetrahydro-pyran-4-carboxylic acid] | 9.71 | 5 | 51.5 |  |
| N#Cc1nc(C(=O)NCC2(C(=O)O)CCOCC2)c(O)c2ccc(Oc3ccccc3)cc12 [Compound 16, 4-{[(1-Cyano-4-hydroxy-7-phenoxy-isoquinoline-3-carbonyl)-amino]-methyl}-tetrahydro-pyran-4-carboxylic acid] | 1.89 | 13 | 24.3 |  |
| CCCC(CNC(=O)c1nc(C#N)c2cc(Oc3ccccc3)ccc2c1O)C(=O)O (centres unmarked) [Compound 17, 2-{[(1-Cyano-4-hydroxy-7-phenoxy-isoquinoline-3-carbonyl)-amino]-methyl}-pentanoic acid] | 3.39 | 14 | 47.9 |  |
| CCCC(CCC)(CNC(=O)c1nc(C#N)c2cc(Oc3ccccc3)ccc2c1O)C(=O)O [Compound 18, 2-{[(1-Cyano-4-hydroxy-7-phenoxy-isoquinoline-3-carbonyl)-amino]-methyl}-2-propyl-pentanoic acid] | 4.43 | 7 | 29.9 |  |
| N#Cc1nc(C(=O)NCC2(C(=O)O)CCCC2)c(O)c2ccc(Oc3ccccc3)cc12 [Compound 19, 1-{[(1-Cyano-4-hydroxy-7-phenoxy-isoquinoline-3-carbonyl)-amino]-methyl}-cyclopentanecarboxylic acid] | 1.73 | 13 | 22.8 |  |
| COc1ccc(Oc2ccc3c(O)c(C(=O)NCC(C)(C)C(=O)O)nc(C#N)c3c2)cc1 [Compound 20, 3{-[1-Cyano-4-hydroxy-7-(4-methoxy-phenoxy)-isoquinoline-3-carbonyl]-amino}-2,2-dimethyl-propionic acid] | 0.35 | 15 | 5.22 |  |
| N#Cc1nc(C(=O)N[C@H](CC(=O)O)Cc2ccccc2)c(O)c2ccc(Oc3ccccc3)cc12 [Compound 67, (S)-3-[(1-Cyano-4-hydroxy-7-phenoxy-isoquinoline-3-carbonyl)-amino]-4-phenyl-butyric acid] | 3.43 |  |  |  |
| N#Cc1nc(C(=O)N[C@@H](CC(=O)O)Cc2ccccc2)c(O)c2ccc(Oc3ccccc3)cc12 [Compound 68, (R)-3-[(1-Cyano-4-hydroxy-7-phenoxy-isoquinoline-3-carbonyl)-amino]-4-phenyl-butyric acid] | 2.27 |  |  |  |
| CC(C)(CC(=O)O)NC(=O)c1nc(C#N)c2cc(Oc3ccccc3)ccc2c1O [Compound 82, 3-[(1-Cyano-4-hydroxy-7-phenoxy-isoquinoline-3-carbonyl)-amino]-3-methyl-butyric acid] |  | 23 |  |  |
| O=C(O)CNC(=O)c1ncc2cc(Oc3ccccc3)ccc2c1O [U.S. Pat. No. 7,323,475; Example D-7, 2-[(4-Hydroxy-7-phenoxy-isoquinoline-3-carbonyl)-amino]-acetic acid, reference compound] |  |  |  | 1.5 |
| O=C(O)CNC(=O)c1ncc2cc(Oc3cccnc3)ccc2c1O [U.S. Pat. No. 7,323,475; Example D-67, 2-{[4-Hydroxy-7-(pyridin-3-yloxy)-isoquinoline-3-carbonyl]-amino}-acetic acid, reference compound] |  |  |  | 3 |
| N#Cc1nc(C(=O)NCC(=O)O)c(O)c2ccc(Oc3ccccc3)cc12 [U.S. Pat. No. 7,928,120; Example 3, 2-[(1-Cyano-4-hydroxy-7-phenoxy-isoquinoline-3-carbonyl)-amino]-acetic acid, reference compound] |  |  |  | 0.4 |
